Patent US20200361895A1, “NOVEL SULFONAMIDE CARBOXAMIDE COMPOUNDS” (Inflazome Limited, priority 2017, published 2020)
Where a name gives a salt, the structure may show the parent alone.

What was measured:
NLRP3 [1] = molecular target: T1, NLRP3 (Homo sapiens, UniProt Q96P20); test: THP-1 cells pyroptosis assay (LPS + nigericin, resazurin readout; THP IC50); assay type: cell-based; design: Seed THP-1 cells (25,000 cells/well) containing 1.0 μg/ml LPS in 40 μl of RPMI medium; host or cells: THP-1 cells
T1 sequence (Q96P20 whole entry): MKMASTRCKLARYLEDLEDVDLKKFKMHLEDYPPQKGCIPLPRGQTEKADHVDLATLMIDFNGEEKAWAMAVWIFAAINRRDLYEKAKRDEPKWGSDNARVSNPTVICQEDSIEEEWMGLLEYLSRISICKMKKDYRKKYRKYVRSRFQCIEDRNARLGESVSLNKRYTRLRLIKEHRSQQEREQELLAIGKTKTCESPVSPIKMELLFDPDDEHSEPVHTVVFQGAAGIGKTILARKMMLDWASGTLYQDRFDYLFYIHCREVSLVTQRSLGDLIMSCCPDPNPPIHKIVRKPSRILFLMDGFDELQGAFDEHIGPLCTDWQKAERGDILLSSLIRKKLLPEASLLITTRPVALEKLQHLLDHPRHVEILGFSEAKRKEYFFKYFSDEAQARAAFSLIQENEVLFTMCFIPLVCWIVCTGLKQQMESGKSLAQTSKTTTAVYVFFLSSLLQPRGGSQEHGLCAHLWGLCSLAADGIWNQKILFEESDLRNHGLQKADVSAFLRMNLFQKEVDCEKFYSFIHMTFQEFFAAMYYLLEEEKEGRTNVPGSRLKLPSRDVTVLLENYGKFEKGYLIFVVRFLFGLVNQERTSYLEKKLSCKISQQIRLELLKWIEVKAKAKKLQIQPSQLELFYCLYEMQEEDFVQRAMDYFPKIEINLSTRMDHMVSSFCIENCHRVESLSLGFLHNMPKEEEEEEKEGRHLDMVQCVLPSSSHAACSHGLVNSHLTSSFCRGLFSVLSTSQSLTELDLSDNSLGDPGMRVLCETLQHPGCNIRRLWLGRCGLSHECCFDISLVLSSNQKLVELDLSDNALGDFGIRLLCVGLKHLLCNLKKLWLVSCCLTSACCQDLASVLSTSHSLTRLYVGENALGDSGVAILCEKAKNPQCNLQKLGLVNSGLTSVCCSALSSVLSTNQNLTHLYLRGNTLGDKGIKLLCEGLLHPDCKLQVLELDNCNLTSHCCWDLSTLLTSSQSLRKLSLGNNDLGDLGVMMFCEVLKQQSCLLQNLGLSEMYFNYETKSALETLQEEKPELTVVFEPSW
Method in brief: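 Human THP-1 cells, 25,000/well in serum-free RPMI with 1 μg/ml LPS, treated 3 hrs at 37° C with compound (8-point half-log, 10 μM top, 0.1% DMSO), then 5 μM nigericin 1 hr. Viability by 100 μM resazurin fluorescence after 1-2 hrs; IC50 by 4-parameter fit.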

NLRP3 [2] = molecular target: T1, NLRP3; test: Human whole blood IL1β release assay (LPS + nigericin, AlphaLisa IL-1β; HWB IC50); assay type: cell-based; design: Human whole blood in Li-heparin tubes was obtained from healthy donors from a volunteer donor panel; from tissue; host or cells: human whole blood from healthy donors; settings: IL-1β release
Experimental: For systemic delivery, the ability to inhibit NLRP3 when the compounds are present within the bloodstream is of great importance. For this reason, the NLRP3 inhibitory activity of a number of compounds in human whole blood was investigated in accordance with the following protocol.
Human whole blood in Li-heparin tubes was obtained from healthy donors from a volunteer donor panel. • 1. Plate out 80 μl of whole blood containing 1 μg/ml of LPS in 96-well, clear bottom cell culture plate (Corning #3585) • 2. Add 10 μl compound (8 points half-log dilution with 10 μM top dose) or vehicle (DMSO 0.1% FAC) to the appropriate wells • 3. Incubate for 3 hrs at 37° C., 5% CO2 • 4. Add 10 μl nigericin (Sigma #N7143) (10 μM FAC) to all wells • 5. Incubate for 1 hr at 37° C., 5% CO2 • 6. At the end of the incubation period, spin plates at 300×g for 5 mins to pellet cells and remove 20 μl of supernatant and add to 96-well v-bottom plates for IL-1β analysis (note: these plates containing the supernatants can be stored at −80° C. to be analysed at a later date) • 7. IL-1β was measured according to the manufacturer protocol (Perkin Elmer-AlphaLisa IL-1 Kit AL220F-5000) • 8. IC50 data is fitted to a non-linear regression equation (log inhibitor vs response-variable slope 4-parameters)

IC50 (NLRP3 [1]) [nM]	IC50 (NLRP3 [2]) [nM]	SMILES
≤ 500	≤ 1000	COc1cc(-c2cc(F)cc(C(C)C)c2NC(=O)NS(=O)(=O)c2ccn(C(C)C)n2)ccn1 [Example 12, N-((4-Fluoro-2-iso-propyl-6-(2-methoxypyridin-4-yl)phenyl)carbamoyl)-1-iso-propyl-1H-pyrazole-3-sulfonamide, partial ammonium salt]
≤ 500	≤ 1000	CC(C)c1cc(F)cc(-c2ccnc(N)c2)c1NC(=O)NS(=O)(=O)c1ccn(C(C)C)n1 [Example 23, N-((2-(2-Aminopyridin-4-yl)-4-fluoro-6-isopropylphenyl)carbamoyl)-1-iso-propyl-1H-pyrazole-3-sulfonamide]
≤ 500	≤ 1000	CCOc1cc(-c2cc(F)cc(C(C)C)c2NC(=O)NS(=O)(=O)c2ccn(C(C)C)n2)ccn1 [Example 24, N-((2-(2-Ethoxypyridin-4-yl)-4-fluoro-6-iso-propylphenyl)carbamoyl)-1-iso-propyl-1H-pyrazole-3-sulfonamide]
≤ 500	≤ 5000	CC(C)Oc1cc(-c2cc(F)cc(C(C)C)c2NC(=O)NS(=O)(=O)c2ccn(C(C)C)n2)ccn1 [Example 27, N-((4-Fluoro-2-(2-isopropoxypyridin-4-yl)-6-iso-propyl-phenyl)carbamoyl)-1-iso-propyl-1H-pyrazole-3-sulfonamide]
≤ 500	≤ 500	CC(C)c1cc(F)cc(-c2cncnc2)c1NC(=O)NS(=O)(=O)c1cc(C(=O)N(C)C)n(C)n1 [Example 32, 3-(N-((4-Fluoro-2-iso-propyl-6-(pyrimidin-5-yl)phenyl)carbamoyl)sulfamoyl)-N,N,1-trimethyl-1H-pyrazole-5-carboxamide, sodium salt]
≤ 500	≤ 1000	COC(C)(C)c1cc(S(=O)(=O)NC(=O)Nc2c(-c3cccnc3)cc(F)cc2C(C)C)nn1C [Example 35, N-((4-Fluoro-2-iso-propyl-6-(pyridin-3-yl)phenyl)carbamoyl)-5-(2-methoxypropan-2-yl)-1-methyl-1H-pyrazole-3-sulfonamide]
≤ 1000	≤ 1000	CC(C)c1cc(F)cc(-c2cccc(C#N)c2)c1NC(=O)NS(=O)(=O)c1cc(CN(C)C)n(C(C)C)n1 [Example 39, N-((3′-Cyano-5-fluoro-3-iso-propyl-[1,1′-biphenyl]-2-yl)carbamoyl)-5-((dimethylamino)methyl)-1-isopropyl-1H-pyrazole-3-sulfonamide]
≤ 500	≤ 1000	CC(C)c1cc(F)cc(-c2ccccc2)c1NC(=O)NS(=O)(=O)c1cc(CN(C)C)n(C)n1 [Example 40, 5-((Dimethylamino)methyl)-N-((5-fluoro-3-iso-propyl-[1,1′-biphenyl]-2-yl)carbamoyl)-1-methyl-1H-pyrazole-3-sulfonamide]
≤ 500	≤ 1000	CC(C)c1cc(F)cc(-c2cccnc2)c1NC(=O)NS(=O)(=O)c1cc(CN(C)C)n(C(C)C)n1 [Example 41, 5-((Dimethylamino)methyl)-N-((4-fluoro-2-iso-propyl-6-(pyridin-3-yl)phenyl)carbamoyl)-1-iso-propyl-1H-pyrazole-3-sulfonamide]
–	≤ 1000	CCN1CCC(S(=O)(=O)NC(=O)Nc2c(-c3ccncc3)ccc3c2CCC3)CC1 [Example 101, 1-Ethyl-N-((5-(pyridin-4-yl)-2,3-dihydro-1H-inden-4-yl)carbamoyl)piperidine-4-sulfonamide, potassium salt]
≤ 10000	–	Cc1cc(-c2ccc3c(c2NC(=O)NS(=O)(=O)c2ccn(C(C)C)n2)CCC3)n(C)n1 [Example 220, N-((5-(1,3-Dimethyl-1H-pyrazol-5-yl)-2,3-dihydro-1H-inden-4-yl)carbamoyl)-1-isopropyl-1H-pyrazole-3-sulfonamide]
≤ 5000	–	COc1cc(-c2ccc3c(c2NC(=O)NS(=O)(=O)c2ccn(C(C)C)n2)CCC3)cc(C)n1 [Example 238, 1-Isopropyl-N-((5-(2-methoxy-6-methylpyridin-4-yl)-2,3-dihydro-1H-inden-4-yl)carbamoyl)-1H-pyrazole-3-sulfonamide, sodium salt]
≤ 5000	–	CC(C)n1ccc(S(=O)(=O)NC(=O)Nc2c(-c3cncn3C)ccc3c2CCC3)n1 [Example 240, 1-Isopropyl-N-((5-(1-methyl-1H-imidazol-5-yl)-2,3-dihydro-1H-inden-4-yl)carbamoyl)-1H-pyrazole-3-sulfonamide]
≤ 5000	–	CC(C)n1ccc(S(=O)(=O)NC(=O)Nc2c(-c3cncnc3)ccc3c2CCC3)n1 [Example 241, 1-Isopropyl-N-((5-(pyrimidin-5-yl)-2,3-dihydro-1H-inden-4-yl)carbamoyl)-1H-pyrazole-3-sulfonamide]
≤ 5000	–	O=C(Nc1c(C2CCOCC2)ccc2c1CCC2)NS(=O)(=O)c1ccn(C2CC2)n1 [Example 254, 1-Cyclopropyl-N-((5-(tetrahydro-2H-pyran-4-yl)-2,3-dihydro-1H-inden-4-yl)carbamoyl)-1H-pyrazole-3-sulfonamide]
≤ 1000	–	COc1cc(-c2ccc3c(c2NC(=O)NS(=O)(=O)OC(C)C)CCC3)ccn1 [Example 256, Isopropyl (5-(2-methoxypyridin-4-yl)-2,3-dihydro-1H-inden-4-yl)carbamoylsulfamate, sodium salt]
≤ 5000	–	Cn1cc(-c2ccc3c(c2NC(=O)NS(=O)(=O)c2ccn(C4CC4)n2)CCC3)ccc1=O [Example 268, 1-Cyclopropyl-N-((5-(1-methyl-6-oxo-1,6-dihydropyridin-3-yl)-2,3-dihydro-1H-inden-4-yl)carbamoyl)-1H-pyrazole-3-sulfonamide]
≤ 5000	–	Cn1ccc(-c2ccc3c(c2NC(=O)NS(=O)(=O)c2ccn(C4CC4)n2)CCC3)cc1=O [Example 272, 1-Cyclopropyl-N-((5-(1-methyl-2-oxo-1,2-dihydropyridin-4-yl)-2,3-dihydro-1H-inden-4-yl)carbamoyl)-1H-pyrazole-3-sulfonamide, sodium salt]
≤ 5000	–	O=C(Nc1c2c(nn1-c1ccncc1)CCC2)NS(=O)(=O)c1ccn(C2CC2)n1 [Example 273, 1-Cyclopropyl-N-((2-(pyridin-4-yl)-2,4,5,6-tetrahydrocyclopenta[c]pyrazol-3-yl)carbamoyl)-1H-pyrazole-3-sulfonamide]
≤ 5000	–	CC(C)n1ccc(S(=O)(=O)NC(=O)Nc2c(-c3ccnc4c3CCO4)ccc3c2CCC3)n1 [Example 283, N-((5-(2,3-Dihydrofuro[2,3-b]pyridin-4-yl)-2,3-dihydro-1H-inden-4-yl)carbamoyl)-1-isopropyl-1H-pyrazole-3-sulfonamide]
≤ 1000	–	CC(=O)Nc1cc(-c2ccc3c(c2NC(=O)NS(=O)(=O)c2ccn(C(C)C)n2)CCC3)ccn1 [Example 297, N-(4-(4-(3-((1-Isopropyl-1H-pyrazol-3-yl)sulfonyl)ureido)-2,3-dihydro-1H-inden-5-yl)pyridin-2-yl)acetamide, sodium salt]
≤ 1000	–	CC(C)n1ccc(S(=O)(=O)NC(=O)Nc2c(-c3ccnc(OC4CCN(C)C4)c3)ccc3c2CCC3)n1 (centres unmarked) [Example 301, 1-Isopropyl-N-((5-(2-((1-methylpyrrolidin-3-yl)oxy)pyridin-4-yl)-2,3-dihydro-1H-inden-4-yl)carbamoyl)-1H-pyrazole-3-sulfonamide, sodium salt]
≤ 5000	–	CC(C)n1ccc(S(=O)(=O)NC(=O)Nc2c(-c3ccnc(OCCN(C)C)c3)ccc3c2CCC3)n1 [Example 302, N-((5-(2-(2-(Dimethylamino)ethoxy)pyridin-4-yl)-2,3-dihydro-1H-inden-4-yl)carbamoyl)-1-isopropyl-1H-pyrazole-3-sulfonamide, sodium salt]
≤ 5000	–	COc1cc(-c2ccc3c(c2NC(=O)NS(=O)(=O)c2ccc(C(=O)N(C)C)cc2)CCO3)ccn1 [Example 309, 4-(N-((5-(2-Methoxypyridyl-4-yl)-2,3-dihydrobenzofuran-4-yl)carbamoyl)sulfamoyl)-N,N-dimethylbenzamide, sodium salt]
≤ 10000	–	CC(C)c1cc(F)cc(-c2ccnc(C#N)c2)c1NC(=O)NS(=O)(=O)N1CC2CCN(C)C2C1 (centres unmarked) [Example 319, N-((2-(2-Cyanopyridin-4-yl)-4-fluoro-6-isopropylphenyl)carbamoyl)-1-methylhexahydropyrrolo[3,4-b]pyrrole-5(1H)-sulfonamide]
≤ 5000	–	COc1cc(-n2nc3c(c2NC(=O)NS(=O)(=O)c2cc(C(C)(C)O)co2)CCC3)ccn1 [Example 322, 4-(2-Hydroxypropan-2-yl)-N-((2-(2-methoxypyridin-4-yl)-2,4,5,6-tetrahydrocyclopenta[c]pyrazol-3-yl)carbamoyl)furan-2-sulfonamide]
